Results published in US9637469B2, “Pyridine derivative” (Teijin Pharma Limited, priority 2012, dated 2017).

target: T1, human URAT1 (Homo sapiens, UniProt Q96S37); test: Test for inhibition of uric acid transport using human URAT1-expressing cells;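 further: three stars up to 0.2 µM two stars 0.2-2 µM one star 2-20 µM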; format: cell-based; conditions: HEK 293 cells expressing human URAT1; 14C-labeled uric acid 25 μM; uptake 37° C. for 5 min
T1 construct: Full-length cDNA of human URAT1 (hURAT1)
T1 sequence (Q96S37 1-553): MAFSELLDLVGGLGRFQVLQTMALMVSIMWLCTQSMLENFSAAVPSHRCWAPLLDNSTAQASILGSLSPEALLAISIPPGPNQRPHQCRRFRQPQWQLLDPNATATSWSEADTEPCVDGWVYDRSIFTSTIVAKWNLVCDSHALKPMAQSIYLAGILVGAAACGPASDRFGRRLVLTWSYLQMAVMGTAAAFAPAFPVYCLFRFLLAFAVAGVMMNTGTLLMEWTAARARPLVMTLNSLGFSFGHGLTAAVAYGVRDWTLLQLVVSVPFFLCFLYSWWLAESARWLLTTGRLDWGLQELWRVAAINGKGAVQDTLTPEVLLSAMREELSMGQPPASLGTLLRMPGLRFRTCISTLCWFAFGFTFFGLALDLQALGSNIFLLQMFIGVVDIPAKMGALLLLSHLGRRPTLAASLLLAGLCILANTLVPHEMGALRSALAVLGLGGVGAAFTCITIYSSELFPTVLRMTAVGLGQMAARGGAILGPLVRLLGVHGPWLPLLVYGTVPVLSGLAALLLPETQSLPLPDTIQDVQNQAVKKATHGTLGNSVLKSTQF
Method: (1) Preparation of the Test Compound
The test compound was dissolved in DMSO (produced by Sigma) to a concentration of 20 mM and was subsequently used by diluting to desired concentrations.
(2) Test for Inhibition of Uric Acid Transport Using Human URAT1-Expressing Cells
Full-length cDNA of human URAT1 (hURAT1) (produced by OriGene Technologies, Inc., NCBI Reference Sequence: NM 144585) was subcloned into an expression vector, pCMV6-Kan/Neo (produced by OriGene Technologies, Inc.), and hURAT1 gene was transfected into human embryonic kidney-derived cells (HEK 293 cells) by liposome method using Lipofectamine 2000 (produced by Invitrogen Corporation), whereupon HEK 293 cells expressing human URAT1 gene were screened by its Geneticin resistance. By a method similar to the following method, functional expression of human URAT1 gene was confirmed by using transport of ^14C-labeled uric acid into the cells as an index.
The HEK 293 cells expressing human URAT1 were seeded in a 24-well cell culture dish to a density of 3×10^5 cells/mL/well and were cultured in Dulbecco's modified Eagle's medium (D-MEM medium) containing 10% fetal bovine serum at 37° C. for 2 days. Thereafter, the following test for inhibition of uric acid transport was performed.
After the medium was removed by aspiration from each well, the medium was replaced with a solution obtained by substituting NaCl in Hank's Balanced Salt Solution (HBSS) with Na gluconate (hereinafter, HBSS/Na-gluconate) and the cells were preincubated at 37° C. for about 10 minutes. HBSS/Na-gluconate was removed by aspiration and a ^14C-uric acid solution that was warmed at 37° C. in advance containing various concentrations of the Example compound described in (1) and a radioactive ligand (^14C-labeled uric acid; final concentration 25 μM) was added and an uptake reaction was carried out by incubating at 37° C. for 5 min. After the incubation, ^14C-labeled uric acid solution was removed by aspiration and the cells were washed three times with ice-cold HBSS. The HEK 293 cells expressing human URAT1 were lysed in 0.2 mol/L aqueous NaOH (hereafter, the cell sample) and the cell samples were collected. The cell sample and a liquid scintillation liquid, ULTIMA GOLD (produced by PerkinElmer, Inc.) were mixed and the radioactivity was measured by a liquid scintillation counter (Beckman Coulter, Inc.).
The uric acid transport rate of the Example compound at each concentration (% of control uptake) was calculated relative to the radioactivity (radioactivity in human URAT1 expressing HEK 293 cells without addition of the Example compound (DMSO addition)) showing URAT1-specific uric acid transport as 100%, and the concentration (IC50) of the Example compound at which the uric acid transport rate is inhibited by 50% was determined. In addition, the symbols (*, **, and ***) in the table represent the following inhibitory activity values: • IC50≦_ 0.2 μM: *** • 0.2 μM<IC50≦2 μM: ** • 2 μM<IC50≦20 μM: *

SMILES	Inhibitory Activity (IC50 of uric acid transport inhibition)
Cc1cncc(-c2ccc(C(=O)O)n2Cc2cc(Cl)ccc2Cl)c1 [Compound B13, 1-(2,5-dichlorobenzyl)-2-(5-methylpyridin-3-yl)-1H-pyrrole-5-carboxylic acid]	* * *
O=C(O)c1ccc(-c2cccnc2)n1Cc1csc2cccc(Br)c12 [Compound B3, 1-((4-bromobenzo[b]thiophen-3-yl)methyl)-2-(pyridin-3-yl)-1H-pyrrole-5-carboxylic acid]	* * *
CS(=O)(=O)NC(=O)c1ccc(-c2cncc(F)c2)n1Cc1cc(Cl)ccc1Cl [Compound B26, 1-(2,5-dichlorobenzyl)-2-(5-fluoropyridin-3-yl)-N-(methylsulfonyl)-1H-pyrrole-5-carboxamide]	* * *
O=C(O)c1c(C(F)(F)F)nc(-c2cccnc2)n1Cc1csc2ccccc12 [Compound A22, 1-(benzo[b]thiophen-3-ylmethyl)-2-(pyridin-3-yl)-4-(trifluoromethyl)-1H-imidazole-5-carboxylic acid]	* *
Cc1nc(-c2cncc(OCC(C)C)c2)n(Cc2cc(Cl)ccc2Cl)c1C(=O)O [Compound A188, 1-(2,5-dichlorobenzyl)-2-(5-isobutoxypyridin-3-yl)-4-methyl-1H-imidazole-5-carboxylic acid]	* * *
Cc1nc(-c2cncc(F)c2)n(Cc2cc(C(F)(F)F)ccc2C(F)(F)F)c1C(=O)O [Compound A170, 1-(2,5-bis(trifluoromethyl)benzyl)-2-(5-fluoropyridin-3-yl)-4-methyl-1H-imidazole-5-carboxylic acid]	* *
Cc1nc(Oc2cccnc2Cl)n(Cc2cc(Cl)ccc2Cl)c1C(=O)O [Compound A253, 2-((2-chloropyridin-3-yl)oxy)-1-(2,5-dichlorobenzyl)-4-methyl-1H-imidazole-5-carboxylic acid]	* * *
O=C(NS(=O)(=O)C1CC1)c1ccc(-c2cccnc2)n1Cc1cccc2ccccc12 [Compound B25, N-(cyclopropylsulfonyl)-1-(naphthalen-1-ylmethyl)-2-(pyridin-3-yl)-1H-pyrrole-5-carboxamide]	* * *
Cc1nc(-c2cccnc2)n(Cc2csc3cccc(Br)c23)c1C(=O)O [Compound A8, 1-((4-bromobenzo[b]thiophen-3-yl)methyl)-4-methyl-2-(pyridin-3-yl)-1H-imidazole-5-carboxylic acid]	* *

Other lines, results leading:

Inhibitory Activity (IC50 of uric acid transport inhibition)	SMILES
* * *	Cc1cncc(-c2nc(C)c(C(=O)O)n2Cc2cc(C)ccc2Cl)c1 [Compound A231, 1-(2-chloro-5-methylbenzyl)-4-methyl-2-(5-methylpyridin-3-yl)-1H-imidazole-5-carboxylic acid]
* * *	CCS(=O)(=O)N1CCN(Cc2nc(-c3cncc(Cl)c3)n(Cc3cc(Cl)ccc3Cl)c2C(=O)O)CC1 [Compound A204, 2-(5-chloropyridin-3-yl)-1-(2,5-dichlorobenzyl)-4-((4-(ethylsulfonyl)piperazin-1-yl)methyl)-1H-imidazole-5-carboxylic acid]
* *	C=Cc1nc(-c2cccnc2)n(Cc2cc(Cl)ccc2Cl)c1C(=O)O [Compound A102, 1-(2,5-dichlorobenzyl)-2-(pyridin-3-yl)-4-vinyl-1H-imidazole-5-carboxylic acid]
* * *	CN1CCN(Cc2nc(-c3cncc(Cl)c3)n(Cc3cc(Cl)ccc3Cl)c2C(=O)O)CC1 [Compound A197, 2-(5-chloropyridin-3-yl)-1-(2,5-dichlorobenzyl)-4-((4-methylpiperazine-1-yl)methyl)-1H-imidazole-5-carboxylic acid]
* * *	O=C(O)c1c(C(F)(F)F)nc(-c2cncc(C(F)(F)F)c2)n1Cc1cc(Cl)ccc1Cl [Compound A140, 1-(2,5-dichlorobenzyl)-4-(trifluoromethyl)-2-(5-(trifluoromethyl)pyridin-3-yl)-1H-imidazole-5-carboxylic acid]
* * *	Cc1nc(Oc2cncc(Br)c2)n(Cc2cc(Cl)ccc2Cl)c1C(=O)O [Compound A251, 2-((5-bromopyridin-3-yl)oxy)-1-(2,5-dichlorobenzyl)-4-methyl-1H-imidazole-5-carboxylic acid]
* * *	CC(C)c1nc(-c2cncc(F)c2)n(Cc2cc(Cl)ccc2Cl)c1C(=O)O [Compound A154, 1-(2,5-dichlorobenzyl)-2-(5-fluoropyridin-3-yl)-4-isopropyl-1H-imidazole-5-carboxylic acid]
* * *	CC(C)(O)c1nc(-c2cncc(Cl)c2)n(Cc2cc(Cl)ccc2Cl)c1C(=O)O [Compound A213, 2-(5-chloropyridin-3-yl)-1-(2,5-dichlorobenzyl)-4-(2-hydroxypropan-2-yl)-1H-imidazole-5-carboxylic acid]
* * *	O=C(O)c1c(Cl)nc(-c2cccnc2)n1Cc1cc(Cl)ccc1Cl [Compound A88, 4-chloro-1-(2,5-dichlorobenzyl)-2-(pyridin-3-yl)-1H-imidazole-5-carboxylic acid]
* * *	CC(C)(O)c1nc(-c2cncc(F)c2)n(Cc2cc(Cl)ccc2Cl)c1C(=O)O [Compound A212, 1-(2,5-dichlorobenzyl)-2-(5-fluoropyridin-3-yl)-4-(2-hydroxypropan-2-yl)-1H-imidazole-5-carboxylic acid]
* * *	O=C(O)c1ccc(-c2cncc(Cl)c2)n1Cc1cc(Cl)ccc1Cl [Compound B17, 2-(5-chloropyridin-3-yl)-1-(2,5-dichlorobenzyl)-1H-pyrrole-5-carboxylic acid]
* * *	Cc1nc(-c2cncc(C(F)F)c2)n(Cc2cc(Cl)ccc2Cl)c1C(=O)O [Compound A208, 1-(2,5-dichlorobenzyl)-2-(5-(difluoromethyl)pyridin-3-yl)-4-methyl-1H-imidazole-5-carboxylic acid]
* * *	O=C(O)c1c(C(F)F)nc(-c2cncc(Cl)c2)n1Cc1cc(Cl)ccc1Cl [Compound A207, 2-(5-chloropyridin-3-yl)-1-(2,5-dichlorobenzyl)-4-(difluoromethyl)-1H-imidazole-5-carboxylic acid]
* *	Cc1nc(-c2cncc(Cl)c2)n(C(C)c2cc(Cl)ccc2Cl)c1C(=O)O (stereo not drawn) [Compound A223, 2-(5-chloropyridin-3-yl)-1-(1-(2,5-dichlorophenyl)ethyl)-4-methyl-1H-imidazole-5-carboxylic acid]

same assay, conditions: HEK 293 cells expressing human URAT1; 14C-labeled uric acid 25 μM; uptake 37° C. for 5 min; read-out: Inhibitory Activity (IC50 of uric acid transport inhibition)

IC50 [µM]	SMILES
2 to 20	Cc1nc(-c2cccnc2)n(Cc2cccc(Cl)c2F)c1C(=O)O [Compound A74]
2 to 20	Cc1nc(-c2ccc(N(C)C)nc2)n(Cc2cc(Cl)ccc2Cl)c1C(=O)O [Compound A163]
2 to 20	CCc1ccccc1Cn1c(-c2cccnc2)nc(C)c1C(=O)O [Compound A59]
2 to 20	CC[S+]([O-])c1nc(-c2cccnc2)n(Cc2cc(Cl)ccc2Cl)c1C(=O)O (stereo not drawn) [Compound A107]
